“Also recorded” adds a separate entry of the source.
Key:
[1] = biological target: TRPV4 (Rattus norvegicus, UniProt Q9ERZ8); conditions: for average peak ∆Ca++ concentration: ≈100 cells, vehicle control 1156
Experimental: We assessed TRPV4-inhibitory potency of these synthetic compounds in a Ca^++ imaging assay in neuronal 2a (N2a) permanent tissue culture cells with directed expression of mammalian (rat) TRPV4. […] For first round assessment, all TRPV4-inhibitory compounds were used at 5 μM (Fig. 2A).
(A) Ca^++ imaging screening of all compounds in N2A cells with directed expression of TRPV4 (rat). […] The number on each bar corresponds to average peak ∆Ca^++ concentrations in ≈100 cells. Inset: micrographs of pseudo-colored cells before and after activation with 5nM GSK101, in addition note the corresponding time course of the averaged Ca^++ signal (fura-2 Ca^++ imaging). […] Plot generated from averaged peak ∆Ca^++ concentration of ≥75 cells per data-point.
TRPV4-eGFP from rat was used, previously found to respond to stimulation with GSK101 and hypotonicity in similar manner as native, non-fused TRPV4.

[2] = biological target: TRPA1 (Mus musculus, UniProt Q8BLA8)
Experimental: Mean±SEM is shown, ≥100 cells per condition. […] Plot generated from averaged peak ∆Ca^++ concentration of ≥75 cells per data-point.
N2a cells were used for directed expression of TRP ion channels as described previously[13]. […] All other channels were native channels from mouse, eGFP was co-transfected. […] Ca^++ imaging was performed as described previously[13][14][34].
To visualize dose-response relationships, Hill plots were conducted using the Igor Pro software program, which derived the plots based on the following equation:

[3] = system: formalin-evoked trigeminal irritant pain (TRPA1 contribution); test: Trigeminal formalin irritant pain model, Trpv4-/- mice; type: in vivo, mouse; conditions: 25 mg/kg i.p.
Experimental: Figure 7 16-8 and 16-19 effectively attenuate formalin-evoked trigeminal irritant pain. (A) Time-course of nocifensive behavior in WT mice following whisker-pad injection of 4% formalin. The mice were pre-injected (i.p., 10 mg/kg; 15 min before formalin) with GSK205, 16-8 or 16-19. Note effective reduction of nocifensive behavior in the late “neural” phase by compounds 16-8, 16-19, not by GSK205. (B) Cumulative response binned into 3 phases: acute phase (0–5 min), interphase (5–15 min), and late “neural” phase (15–45 min). […] (C) As in (A), but also including Trpv4^−/− mice. Compounds were applied i.p. 15 min before formalin challenge, at 10 mg/kg except established TRPA1 blocker, A967079 (25 mg/kg). Previously-established attenuated nocifensive behavior in early and late phase in Trpv4^−/− mice was recapped, which was reduced further by TRPA1 blocker, A967079. (D) As in (B), plus inclusion of Trpv4^−/− mice. Robust effects of TRPA1-blocker, A967079, were mimicked equi-potently by 16-8 and 16-19 for early phase, and by 16-8 for late phase, partially by 16-19 for late phase. (A,C) show averaged behavioral metrics per time-point, bars in (B,D) represent mean ± SEM; for (D) ^*P < 0.05; ^#P < 0.005, one-way ANOVA; for all panels n = 5–8 mice/group. […] We observed significant residual irritant-pain behavior in all phases of the formalin model in Trpv4^−/− mice, consistent with our previous report[13] (Fig. 7C,D). […] A reference TRPA1-inhibitory compound, A967079, was used at 25 mg/kg body weight as a positive control to inhibit TRPA1, based on a previous report. Reduction of pain behavior in Trpv4^−/− mice was striking, more than 50% in the late neural phase. […] We conclude that compound 16-8 also functions as a potent TRPA1-inhibitor in an in-vivo irritant pain model specifically designed to assess the contribution of TRPA1 to trigeminal irritant pain, and at least as potent as an established reference TRPA1-antagonistic compound. Implementation of this model was conducted as described previously. Video-taped nocifensive behavior was assessed by investigators blinded to genotype and treatment.

[4] = system: formalin-evoked trigeminal irritant pain; test: Trigeminal formalin irritant pain model, WT mice; type: in vivo, mouse; conditions: 10 mg/kg i.p., 15 min before 4% formalin, 15–45 min
Experimental: Figure 7 16-8 and 16-19 effectively attenuate formalin-evoked trigeminal irritant pain. (A) Time-course of nocifensive behavior in WT mice following whisker-pad injection of 4% formalin. The mice were pre-injected (i.p., 10 mg/kg; 15 min before formalin) with GSK205, 16-8 or 16-19. Note effective reduction of nocifensive behavior in the late “neural” phase by compounds 16-8, 16-19, not by GSK205. (B) Cumulative response binned into 3 phases: acute phase (0–5 min), interphase (5–15 min), and late “neural” phase (15–45 min). […] (C) As in (A), but also including Trpv4^−/− mice. Compounds were applied i.p. 15 min before formalin challenge, at 10 mg/kg except established TRPA1 blocker, A967079 (25 mg/kg). Previously-established attenuated nocifensive behavior in early and late phase in Trpv4^−/− mice was recapped, which was reduced further by TRPA1 blocker, A967079. (D) As in (B), plus inclusion of Trpv4^−/− mice. Robust effects of TRPA1-blocker, A967079, were mimicked equi-potently by 16-8 and 16-19 for early phase, and by 16-8 for late phase, partially by 16-19 for late phase. (A,C) show averaged behavioral metrics per time-point, bars in (B,D) represent mean ± SEM; for (D) ^*P < 0.05; ^#P < 0.005, one-way ANOVA; for all panels n = 5–8 mice/group. Implementation of this model was conducted as described previously. Video-taped nocifensive behavior was assessed by investigators blinded to genotype and treatment.

[5] = system: formalin-evoked trigeminal irritant pain; set-up: method as in PMID 25281928; conditions: intradermal injection; cited from earlier work

TRPV4, sequence (Q9ERZ8 whole entry): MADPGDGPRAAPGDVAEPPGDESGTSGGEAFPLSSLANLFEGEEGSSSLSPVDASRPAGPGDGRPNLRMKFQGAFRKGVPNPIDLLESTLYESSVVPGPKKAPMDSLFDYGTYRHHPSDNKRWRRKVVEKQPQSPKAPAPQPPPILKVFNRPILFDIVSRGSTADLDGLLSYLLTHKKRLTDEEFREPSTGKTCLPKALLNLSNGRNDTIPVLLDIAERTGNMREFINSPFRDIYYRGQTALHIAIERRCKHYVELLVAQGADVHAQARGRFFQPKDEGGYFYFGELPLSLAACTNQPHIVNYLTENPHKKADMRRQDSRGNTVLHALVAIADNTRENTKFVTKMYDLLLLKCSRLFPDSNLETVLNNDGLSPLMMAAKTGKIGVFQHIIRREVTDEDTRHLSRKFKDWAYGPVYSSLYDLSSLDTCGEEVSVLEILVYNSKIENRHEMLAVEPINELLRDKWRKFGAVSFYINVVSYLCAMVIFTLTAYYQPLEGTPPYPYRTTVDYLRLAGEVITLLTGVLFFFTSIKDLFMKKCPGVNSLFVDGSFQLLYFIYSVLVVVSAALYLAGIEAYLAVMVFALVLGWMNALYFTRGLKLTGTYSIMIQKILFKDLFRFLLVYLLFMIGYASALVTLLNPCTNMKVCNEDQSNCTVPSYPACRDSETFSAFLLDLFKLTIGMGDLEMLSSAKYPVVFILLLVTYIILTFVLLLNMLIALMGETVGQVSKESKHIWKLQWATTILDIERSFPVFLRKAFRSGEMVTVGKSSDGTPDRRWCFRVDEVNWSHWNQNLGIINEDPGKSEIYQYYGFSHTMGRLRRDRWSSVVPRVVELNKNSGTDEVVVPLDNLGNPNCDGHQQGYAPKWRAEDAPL
TRPA1, sequence (Q8BLA8 whole entry): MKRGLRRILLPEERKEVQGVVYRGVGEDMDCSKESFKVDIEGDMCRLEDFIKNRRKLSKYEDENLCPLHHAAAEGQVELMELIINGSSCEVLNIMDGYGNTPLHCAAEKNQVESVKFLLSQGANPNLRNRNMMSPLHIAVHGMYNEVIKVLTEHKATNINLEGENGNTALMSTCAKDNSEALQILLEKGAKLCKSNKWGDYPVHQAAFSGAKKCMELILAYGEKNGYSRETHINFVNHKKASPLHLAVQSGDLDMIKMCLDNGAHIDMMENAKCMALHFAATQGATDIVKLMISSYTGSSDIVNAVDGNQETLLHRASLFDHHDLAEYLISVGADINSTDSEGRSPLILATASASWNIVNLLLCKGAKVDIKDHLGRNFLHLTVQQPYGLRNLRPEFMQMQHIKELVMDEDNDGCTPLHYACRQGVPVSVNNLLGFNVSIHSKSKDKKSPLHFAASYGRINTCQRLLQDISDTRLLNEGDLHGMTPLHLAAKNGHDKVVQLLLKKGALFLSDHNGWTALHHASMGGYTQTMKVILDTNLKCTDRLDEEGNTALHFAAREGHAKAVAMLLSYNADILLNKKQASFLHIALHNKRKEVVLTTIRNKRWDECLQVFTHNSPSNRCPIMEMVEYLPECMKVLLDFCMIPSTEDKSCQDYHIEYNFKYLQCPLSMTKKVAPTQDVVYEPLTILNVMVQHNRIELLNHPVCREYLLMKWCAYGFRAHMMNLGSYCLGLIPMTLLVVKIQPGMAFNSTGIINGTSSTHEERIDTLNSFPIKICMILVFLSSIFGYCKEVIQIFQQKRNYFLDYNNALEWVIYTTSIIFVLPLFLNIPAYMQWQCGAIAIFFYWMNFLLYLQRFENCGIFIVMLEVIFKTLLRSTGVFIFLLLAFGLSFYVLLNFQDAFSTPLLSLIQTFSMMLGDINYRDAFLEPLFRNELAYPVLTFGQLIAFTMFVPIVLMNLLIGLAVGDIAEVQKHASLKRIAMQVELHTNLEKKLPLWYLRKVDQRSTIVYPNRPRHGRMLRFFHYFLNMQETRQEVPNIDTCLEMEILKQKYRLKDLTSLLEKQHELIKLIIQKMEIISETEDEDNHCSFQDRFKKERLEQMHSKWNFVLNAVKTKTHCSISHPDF

For `CN(CCc1ccc(Nc2nc(-c3cccnc3)cs2)cc1)CCc1cccnc1` [16-12], the “average peak ∆Ca++ concentration” value ([1]; 5 μM inhibitor, GSK101 5 nM) was 39.5 nM.
In the case of `CN(CCc1ccc(Nc2nc(-c3ccncc3)cs2)cc1)Cc1ccccc1` [16-13], the “average peak ∆Ca++ concentration” value ([1]; 5 μM inhibitor, GSK101 5 nM) is reported as 52 nM.
For `CN(CCc1ccc(Nc2nc(-c3ccccn3)cs2)cc1)Cc1ccccc1` [16-14], the “average peak ∆Ca++ concentration” value ([1]; 5 μM inhibitor, GSK101 5 nM) was 558 nM.
In the case of `CN(CCc1ccc(Nc2nc(-c3cccnc3)cs2)cc1)c1ccccc1` [16-16], the “average peak ∆Ca++ concentration” value ([1]; 5 μM inhibitor, GSK101 5 nM) is reported as 263 nM.
In the case of `CCN(CCc1ccc(Nc2nc(-c3cccnc3)cs2)cc1)Cc1ccccc1` [16-18], the IC50 [2] is reported as over 25 µM, the “activity vs TRPA1” value ([2]; 100 μM mustard oil, N2a cells) is reported as “no significant activity” and the “average peak ∆Ca++ concentration” value ([1]; 5 μM inhibitor, GSK101 5 nM) is reported as 14 nM. The “increased potency over GSK205” value ([1]; from TRPV4 IC50 values) was about 5 fold.
For `CN(CCc1ccc(Nc2ncc(-c3cccnc3)s2)cc1)Cc1ccccc1` [16-43C], the “inhibition of TRPV4-mediated Ca++ influx” value ([1]; 5 μM inhibitor, GSK101 5 nM) was “did not inhibit Ca^++ influx” and the “average peak ∆Ca++ concentration” value ([1]; 5 μM inhibitor, GSK101 5 nM) was 1210 nM.
In the case of `CCC(=N\O)/C(C)=C/c1ccc(F)cc1` [A967079, reference compound], the “reduction of pain behavior, late neural phase” value [3] is reported as “more than 50%”.
For `CN(CCc1ccc(Nc2nc(-c3cccnc3)cs2)cc1)Cc1ccccc1` [GSK205, reference compound], the “pain behavior, delayed (late neural) phase” value [4] was “no significant effect”, the IC50 [2] was 5.56 µM and the IC50 [1] was 4.19 ± 0.71 µM. The “average peak ∆Ca++ concentration” value ([1]; 5 μM inhibitor, GSK101 5 nM) was 650 nM and the “attenuation of trigeminal formalin-evoked pain behavior” value [5] was “effective attenuation; also recorded: effective previously in a dose-dependent manner”.
